Experimental data reported in paper PMC7582707, “Synthesis and Properties of CurNQ for the Theranostic Application in Ovarian Cancer Intervention” (Molecules, 2020).
In brackets after ≈: the same amount, converted by molar mass.

Columns and labels:
OVCAR-5 = assay: Cell viability / cytotoxicity by high content imaging (DAPI nuclei count); type: cell-based; conditions: for IC50: OVCAR-5, 24 h treatment
Protocol: (§1) The ovarian carcinoma cancer cell lines OVCAR-5 and SKOV3 were purchased from Fox Chase Cancer Facility, USA, Jerkitown, […]. The healthy fibroblast cell line NIH: 3T3 was utilized as a control. The cells were cultured in DMEM with the media being supplemented with 10% fetal bovine serum and 1% penicillin-streptomycin. Cells were incubated at 37 °C with 5% CO2. Upon the cells reaching 70–80% confluency, the cells were washed, and sub-cultured by harvesting using trypsin/EDTA.
(§2) Cells were grown until 80% confluency prior to utilization. Upon confluency, media was removed, and cells were washed twice in sterile PBS. Trypsin/EDTA was then added to the flasks and incubated at 37 °C for 5 min, allowing the cells to detach from the bottom of the flask. These cells were then collected and centrifuged. The pellet was resuspended, and the cells were counted using the trypan blue exclusion assay. A predetermined and equal number of cells were then added into each well of a 96-well plate. The cells were incubated overnight at 37 °C and at 5% CO2, allowing the cells to attach to the plates. […] Each treatment was performed in quintuplicate. Treatments occurred for 24 h. Subsequent to this time period, media was removed, and cells were fixed with 5% formaldehyde in PBS for 20 min. Next, cells were incubated for 15 min in a 1 µg/mL solution of DAPI. The plates were then washed several times with PBS to remove all residual DAPI and to reduce background fluorescence. All plates were stored in the dark. Plates were then run on the Logos Biosystem CELENA® X High Content Imaging System and analyses were performed using their proprietary software. IC50 values were calculated using a Prism Graph. Using the Logos Biosystem software, a pipeline was set up to determine the nuclei count, form factor, compactness and eccentricity. The following definitions were used:Eccentricity = ratio of the distance between the foci of the ellipse and its major axis length. Compactness = mean squared distance of the object’s pixels from the centroid divided by the area. Form Factor = 4 × π × Area/Perimeter2

SKOV3 = assay: as above; type: cell-based; conditions: for IC50: Homo sapiens, SK-OV-3, SKOV3, 24 h treatment
Protocol: as §1, §2

[1] = Cell viability / cytotoxicity by high content imaging, healthy fibroblast control; type: cell-based; conditions: mouse, NIH:3T3 fibroblast cells
Protocol: as §1, §2

NIH:3T3 = assay: as above; type: cell-based; conditions: Mus musculus, NIH3T3; NIH:3T3 healthy fibroblast, 24 h treatment
Protocol: as §1, §2

OVCAR-5 cells = assay: Nuclear morphology analysis by high content imaging (eccentricity, compactness, form factor); type: cell-based; conditions: 24 h; for form factor of nuclei: OVCAR-5, treatment greater than 50 µM
Protocol: Cells were grown until 80% confluency prior to utilization. Upon confluency, media was removed, and cells were washed twice in sterile PBS. Trypsin/EDTA was then added to the flasks and incubated at 37 °C for 5 min, allowing the cells to detach from the bottom of the flask. These cells were then collected and centrifuged. The pellet was resuspended, and the cells were counted using the trypan blue exclusion assay. A predetermined and equal number of cells were then added into each well of a 96-well plate. The cells were incubated overnight at 37 °C and at 5% CO2, allowing the cells to attach to the plates. […] Each treatment was performed in quintuplicate. Treatments occurred for 24 h. Subsequent to this time period, media was removed, and cells were fixed with 5% formaldehyde in PBS for 20 min. Next, cells were incubated for 15 min in a 1 µg/mL solution of DAPI. The plates were then washed several times with PBS to remove all residual DAPI and to reduce background fluorescence.

[2] = Saturation solubility at different pH; type: physicochemical
Text: Consequently, cancer targeting and specific release of an active agent at the tumor location is essential. Multiple tactics can be employed to achieve this. Herein, we exploited the acidification of the tumor microenvironment that accompanies malignant transformation for targeted detection and treatment. […] The slight acidification of the microenvironment surrounding a tumor is a hallmark feature of cancer and is termed the Warburg effect. Therefore, CurNQ can detect this change in pH associated with malignant transformation resulting from its pH specific solubility.
Figure 4 Fluorescence properties and pH specific properties of CurNQ. (A) Excitation and emission spectra of 1.5 µM solution of CurNQ. (B) Saturation solubility of a I.5 µM solution of CurNQ at pH 7.4 and 6.8.

Row | Structure (SMILES) | viability at 20 µM (OVCAR-5; Homo sapiens, OVCAR-5, 24 h, read-out: cell viability) [%] | IC50 (OVCAR-5; Homo sapiens) [µM] | IC50 (SKOV3) [µM] | viability at 24 h ([1]; NIH:3T3, lowest viability reached) [%] | IC50 (NIH:3T3) [µM] | form factor of nuclei (OVCAR-5 cells) | solubility ([2]; pH 6.8, aqueous buffer) [µM] | solubility ([2]; pH 7.4, aqueous buffer) [µM] | cell viability (OVCAR-5; OVCAR-5, in vitro cytotoxicity assay) | cell viability (OVCAR-5; OVCAR-5, low concentrations, 24-h incubation) | cell viability (SKOV3; SKOV3, in vitro cytotoxicity assay) | viability at 24 h, 100 µM ([1]; NIH:3T3, 100 µM) [%] | eccentricity of nuclei (OVCAR-5 cells; OVCAR-5, 5-100 µM)
1 | O=C1C=C(Br)C(=O)c2ccccc21 [BrNQ, 2-bromo-1,4-naphthoquinone, reference compound] | < 10 | 4.85 | 2.74 | < 15 | 6.91 | large increase |  |  |  |  |  |  | 
2 | COc1cc(/C=C/C(=O)CC(=O)/C=C/c2ccc(O)c(OC)c2)ccc1O [CUR, diferuloylmethane, reference compound] |  | 9.64 | 4.79 |  | 43.9 |  |  |  |  |  |  |  | 
3 | COc1cc(/C=C/C(=O)/C=C(O)/C=C/c2ccc(OC3=CC(=O)c4ccccc4C3=O)c(OC)c2)ccc1OC1=CC(=O)c2ccccc2C1=O [CurNQ, 2,2′-((((1E,3Z,6E)-3-hydroxy-5-oxohepta-1,3,6-triene-1,7-diyl)bis(2-methoxy-4,1-phenylene))bis(oxy))bis(naphthalene-1,4-dione)] |  | 4.05 | 5.35 |  | 65.5 | large increase | 20.7 (≈ 14.1 µg/mL) | 11.2 (≈ 7.59 µg/mL) | below 50% | below 40% | below 50% | 44 | decreased in a dose-dependent manner
